Experimental data reported in US20210238225A1, “PEPTIDOMIMETIC INHIBITORS OF THE PEPTIDYL-PROLYL CIS/TRANS ISOMERASE (PIN1)” (DANA-FARBER CANCER INSTITUTE, INC., priority 2018, published 2021).
Like-named read-outs stand apart in the source and are kept apart here. Non-standard residues stand in square brackets, D forms with d. Residues, ends and D or L forms follow the SMILES beside them. *: point of attachment. Phe(4-F) = N[C@@H](Cc1ccc(F)cc1)C(=O)O; 2Nal = N[C@@H](Cc1ccc2ccccc2c1)C(=O)O; Met(O2) = CS(=O)(=O)CC[C@H](N)C(=O)O; X2 = C[C@H]1NC(=O)N[C@H]1CCCCCC(=O)*; NH(4-Me-benzyl) = Cc1ccc(CN*)cc1; β3hF = N[C@H](CC(=O)O)Cc1ccccc1; Cit = NC(=O)NCCC[C@H](N)C(=O)O; X7 = c1ccc(-c2ccc(N*)cc2)cc1; Pip = O=C(O)[C@@H]1CCCCN1; βNA = c1ccc2cc(N*)ccc2c1; Fluoroacetyl = O=C(CF)*; X5 = Cc1ccc(CN(C)*)cc1; Acryloyl = C=CC(=O)*; X4 = CN(c1ccccc1)*; ClAc = O=C(CCl)*; X1 = O=C(C1CO1)*

Target: Pin1 (GST-Pin1) (Homo sapiens, UniProt Q13526)
Test: Fluorescence polarization (FP) assay, binding to Pin1
Conditions: competition with fluorescein-labeled peptide probe, 12 hours pre-incubation at 4° C., Kenakin Ki equation

Sequence of Pin1 (GST-Pin1) (Q13526 whole entry): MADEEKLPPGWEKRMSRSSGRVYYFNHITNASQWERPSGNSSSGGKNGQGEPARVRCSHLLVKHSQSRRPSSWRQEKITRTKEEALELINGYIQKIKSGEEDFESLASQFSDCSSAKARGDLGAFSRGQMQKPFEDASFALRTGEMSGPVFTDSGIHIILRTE

Ki (read-out: Ki, μM (FP Assay)) | Structure (SMILES) | Ki (Ki, μM (FP Assay))
> 10 µM | N=C(N)NCCC[C@H](NC(=O)C[C@H](Cc1ccccc1)NC(=O)[C@@H]1CCCCN1C(=O)[C@H](CCC(=O)O)NC(=O)CCl)C(N)=O [Compound 2b-15, (S)-5-((S)-2-(((S)-4-(((S)-1-Amino-5-guanidino-1-oxopentan-2-yl)amino)-4-oxo-1-phenylbutan-2-yl)carbamoyl)piperidin-1-yl)-4-(2-chloroacetamido)-5-oxopentanoic acid] (ClAc-E[Pip][β3hF]R-NH2) | 
> 10 µM | C=CC(=O)N[C@@H](CCC(=O)O)C(=O)N1CCCC[C@H]1C(=O)N[C@@H](Cc1ccc2ccccc2c1)C(=O)N[C@@H](CCCNC(=N)N)C(N)=O [Compound 2b-16, (S)-4-Acrylamido-5-((S)-2-(((S)-1-(((S)-1-amino-5-guanidino-1-oxopentan-2-yl)amino)-3-(naphthalen-2-yl)-1-oxopropan-2-yl)carbamoyl)piperidin-1-yl)-5-oxopentanoic acid] (Acryloyl-E[Pip][2Nal]R-NH2) | 
0.04 µM | C[C@H](NC(=O)[C@H](C)NC(=O)[C@H](CCCNC(N)=O)NC(=O)[C@H](Cc1c[nH]c2ccccc12)NC(=O)[C@@H]1CCCCN1C(=O)[C@H](CCC(=O)O)NC(=O)CCl)C(=O)N[C@@H](CCCCNC(=O)CCCCC[C@@H]1NC(=O)N[C@@H]1C)C(N)=O [Compound 2c-1, (S)-5-((S)-2-(((2S,5S,8S,11S)-14-Carbamoyl-1-(1H-indol-3-yl)-8,11-dimethyl-25-((4S,5R)-5-methyl-2-oxoimidazolidin-4-yl)-3,6,9,12,20-pentaoxo-5-(3-ureidopropyl)-4,7,10,13,19-pentaazapentacosan-2-yl)carbamoyl)piperidin-1-yl)-4-(2-chloroacetamido)-5-oxopentanoic acid] (ClAc-E[Pip]W[Cit]AAK(X2)-NH2) | 
 | C[C@H]1NC(=O)N[C@H]1CCCCCC(=O)NCCCC[C@H](NC(=O)[C@H](CCCNC(N)=O)NC(=O)[C@H](Cc1c[nH]c2ccccc12)NC(=O)[C@@H]1CCCCN1C(=O)[C@H](CCC(=O)O)NC(=O)CCl)C(N)=O [Compound 2c-2, (S)-5-((S)-2-(((S)-1-(((S)-1-(((S)-1-Amino-6-(6-((4S,5R)-5-methyl-2-oxoimidazolidin-4-yl)hexanamido)-1-oxohexan-2-yl)amino)-1-oxo-5-ureidopentan-2-yl)amino)-3-(1H-indol-3-yl)-1-oxopropan-2-yl)carbamoyl)piperidin-1-yl)-4-(2-chloroacetamido)-5-oxopentanoic acid] (ClAc-E[Pip]W[Cit]K(X2)-NH2) | 0.03 µM
4.17 µM | COC(=O)CC[C@H](NC(=O)C1CO1)C(=O)N1CCCC[C@H]1C(=O)N[C@@H](Cc1c[nH]c2ccccc12)C(=O)N[C@@H](CCCNC(N)=O)C(N)=O (stereo partly drawn) [Compound 3, Methyl (4S)-5-((S)-2-(((S)-1-(((S)-1-amino-1-oxo-5-ureidopentan-2-yl)amino)-3-(1H-indol-3-yl)-1-oxopropan-2-yl)carbamoyl)piperidin-1-yl)-4-(oxirane-2-carboxamido)-5-oxopentanoate] (X1-E(OMe)[Pip]W[Cit]-NH2) | 
> 10 µM | NC(=O)NCCC[C@H](NC(=O)[C@H](Cc1ccc2ccccc2c1)NC(=O)[C@@H]1CCCCN1C(=O)[C@H](CCC(=O)O)N1C(=O)C=CC1=O)C(N)=O [Compound 5, (S)-5-((S)-2-(((S)-1-(((S)-1-Amino-1-oxo-5-ureidopentan-2-yl)amino)-3-(naphthalen-2-yl)-1-oxopropan-2-yl)carbamoyl)piperidin-1-yl)-4-(2,5-dioxo-2,5-dihydro-1H-pyrrol-1-yl)-5-oxopentanoic acid] | 
0.61 µM | NC(=O)NCCC[C@H](NC(=O)[C@H](Cc1ccc2ccccc2c1)NC(=O)[C@@H]1CCCCN1C(=O)C[C@H](CCC(=O)O)N1C(=O)C=CC1=O)C(N)=O [Compound 5-1, (S)-6-((S)-2-(((S)-1-(((S)-1-Amino-1-oxo-5-ureidopentan-2-yl)amino)-3-(naphthalen-2-yl)-1-oxopropan-2-yl)carbamoyl)piperidin-1-yl)-4-(2,5-dioxo-2,5-dihydro-1H-pyrrol-1-yl)-6-oxohexanoic acid] | 
 | NC(=O)NCCC[C@H](NC(=O)[C@H](Cc1c[nH]c2ccccc12)NC(=O)[C@@H]1CCCCN1C(=O)[C@H](CCC(=O)O)NC(=O)CF)C(N)=O [Compound 6b, (S)-5-((S)-2-(((S)-1-(((S)-1-Amino-1-oxo-5-ureidopentan-2-yl)amino)-3-(1H-indol-3-yl)-1-oxopropan-2-yl)carbamoyl)piperidin-1-yl)-4-(2-fluoroacetamido)-5-oxopentanoic acid] (Fluoroacetyl-E[Pip]W[Cit]-NH2) | > 10 µM
 | N=C(N)NCCC[C@H](NC(=O)[C@H](Cc1ccc2ccccc2c1)NC(=O)[C@@H]1CCCCN1C(=O)[C@H](CCC(=O)O)NC(=O)CF)C(N)=O [Compound 6b-1, (S)-5-((S)-2-(((S)-1-(((S)-1-Amino-5-guanidino-1-oxopentan-2-yl)amino)-3-(naphthalen-2-yl)-1-oxopropan-2-yl)carbamoyl)piperidin-1-yl)-4-(2-fluoroacetamido)-5-oxopentanoic acid] (Fluoroacetyl-E[Pip][2Nal]R-NH2) | > 10 µM
 | COC(=O)CC[C@H](NC(=O)CCl)C(=O)N1CCCC[C@H]1C(=O)N[C@@H](Cc1c[nH]c2ccccc12)C(=O)N[C@@H](CCCNC(N)=O)C(=O)Nc1ccc2ccccc2c1 [Compound 11-8, Methyl (S)-5-((S)-2-(((S)-3-(1H-indol-3-yl)-1-(((S)-1-(naphthalen-2-ylamino)-1-oxo-5-ureidopentan-2-yl)amino)-1-oxopropan-2-yl)carbamoyl)piperidin-1-yl)-4-(2-chloroacetamido)-5-oxopentanoate] (ClAc-E(OMe)[Pip]W[Cit]-βNA) | 0.15 µM
0.11 µM | NC(=O)NCCC[C@H](NC(=O)[C@H](Cc1c[nH]c2ccccc12)NC(=O)[C@@H]1CCCCN1C(=O)[C@H](CCC(=O)O)NC(=O)CCl)C(=O)Nc1ccc2ccccc2c1 [Compound 11-10, (S)-5-((S)-2-(((S)-3-(1H-Indol-3-yl)-1-(((S)-1-(naphthalen-2-ylamino)-1-oxo-5-ureidopentan-2-yl)amino)-1-oxopropan-2-yl)carbamoyl)piperidin-1-yl)-4-(2-chloroacetamido)-5-oxopentanoic acid] (ClAc-E[Pip]W[Cit]-βNA) | 
> 10 µM | COC(=O)CC[C@H](NC(=O)C1CO1)C(=O)N1CCCC[C@H]1C(=O)N[C@@H](Cc1c[nH]c2ccccc12)C(=O)N[C@@H](CCCNC(N)=O)C(=O)NCc1ccc(C)cc1 (stereo partly drawn) [Compound 11-12, Methyl (4S)-5-((S)-2-(((S)-3-(1H-indol-3-yl)-1-(((S)-1-((4-methylbenzyl)amino)-1-oxo-5-ureido-pentan-2-yl)amino)-1-oxopropan-2-yl)carbamoyl)piperidin-1-yl)-4-(oxirane-2-carboxamido)-5-oxopentanoate] (X1-E(OMe)[Pip]W[Cit]-{NH(4-Me-benzyl)}) | 
 | COC(=O)CC[C@H](NC(=O)CCl)C(=O)N1CCCC[C@H]1C(=O)N[C@@H](Cc1c[nH]c2ccccc12)C(=O)N[C@@H](CCCNC(N)=O)C(=O)N(C)c1ccccc1 [Compound 11-15, Methyl (S)-5-((S)-2-(((S)-3-(1H-indol-3-yl)-1-(((S)-1-(methyl(phenyl)amino)-1-oxo-5-ureidopentan-2-yl)amino)-1-oxopropan-2-yl)carbamoyl)piperidin-1-yl)-4-(2-chloroacetamido)-5-oxopentanoate] (ClAc-E(OMe)[Pip]W[Cit]-X4) | 0.15 µM
 | COC(=O)CC[C@@H](NC(=O)CCl)C(=O)N1CCCC[C@H]1C(=O)N[C@@H](Cc1c[nH]c2ccccc12)C(=O)N[C@@H](Cc1ccc(F)cc1)C(=O)NCc1ccc(C)cc1 [Compound 11-16, Methyl (R)-4-(2-chloroacetamido)-5-((S)-2-(((S)-1-(((S)-3-(4-fluorophenyl)-1-((4-methyl-benzyl)amino)-1-oxopropan-2-yl)amino)-3-(1H-indol-3-yl)-1-oxopropan-2-yl)carbamoyl)-piperidin-1-yl)-5-oxopentanoate] (ClAc-[dE](OMe)[Pip]W[Phe(4-F)]-{NH(4-Me-benzyl)}) | > 10 µM
 | COC(=O)CC[C@H](NC(=O)CCl)C(=O)N1CCCC[C@H]1C(=O)N[C@@H](Cc1c[nH]c2ccccc12)C(=O)N[C@@H](CCCNC(N)=O)C(=O)Nc1ccc(-c2ccccc2)cc1 [Compound 11-17, Methyl (S)-5-((S)-2-(((S)-1-(((S)-1-([1,1′-biphenyl]-4-ylamino)-1-oxo-5-ureidopentan-2-yl)amino)-3-(1H-indol-3-yl)-1-oxopropan-2-yl)carbamoyl)piperidin-1-yl)-4-(2-chloroacetamido)-5-oxopentanoate] (ClAc-E(OMe)[Pip]W[Cit]-X7) | > 10 µM
 | COC(=O)CC[C@H](NC(=O)CCl)C(=O)N1CCCC[C@H]1C(=O)N[C@@H](Cc1c[nH]c2ccccc12)C(=O)N[C@@H](Cc1ccc(F)cc1)C(=O)N(C)c1ccccc1 [Compound 11-20, Methyl (S)-4-(2-chloroacetamido)-5-((S)-2-(((S)-1-(((S)-3-(4-fluorophenyl)-1-(methyl-(phenyl)amino)-1-oxopropan-2-yl)amino)-3-(1H-indol-3-yl)-1-oxopropan-2-yl)carbamoyl)-piperidin-1-yl)-5-oxopentanoate] (ClAc-E(OMe)[Pip]W[Phe(4-F)]-X4) | 0.223 µM

Structure (SMILES) | Ki (read-out: Ki, μM (FP Assay)) | Ki (Ki, μM (FP Assay))
Cc1ccc(CN(C)C(=O)[C@H](CCCNC(N)=O)NC(=O)[C@H](Cc2c[nH]c3ccccc23)NC(=O)[C@@H]2CCCCN2C(=O)[C@H](CCC(=O)O)NC(=O)CCl)cc1 [Compound 11-9, (S)-5-((S)-2-(((S)-3-(1H-Indol-3-yl)-1-(((S)-1-(methyl(4-methylbenzyl)amino)-1-oxo-5-ureidopentan-2-yl)amino)-1-oxopropan-2-yl)carbamoyl)piperidin-1-yl)-4-(2-chloroacetamido)-5-oxopentanoic acid] (ClAc-E[Pip]W[Cit]-X5) | 0.31 µM | 
Cc1ccc(CNC(=O)[C@H](CCCNC(N)=O)NC(=O)[C@H](Cc2c[nH]c3ccccc23)NC(=O)[C@@H]2CCCCN2C(=O)[C@H](CCS(C)(=O)=O)NC(=O)CCl)cc1 [Compound 11-11, (S)—N—((S)-3-(1H-Indol-3-yl)-1-(((S)-1-((4-methylbenzyl)amino)-1-oxo-5-ureidopentan-2-yl)amino)-1-oxopropan-2-yl)-1-((S)-2-(2-chloroacetamido)-4-(methylsulfonyl)butanoyl)piperidine-2-carboxamide] (ClAc-[Met(O2)][Pip]W[Cit]-{NH(4-Me-benzyl)}) | 0.17 µM | 
